{
  "source": "patent US20170209468A1",
  "about": "“POLY(BETA-AMINO ESTER) CONJUGATES FOR CARTILAGE AGENT DELIVERY AND METHODS” (University College Cardiff Consultants Limited, priority 2014, published 2017)",
  "test_system": "chondrocytes",
  "test": "Viability of chondrocytes after exposure (MTT and LDH assays)",
  "format": "cell-based, bovine",
  "details": "15 μl of DEX 4 mg/ml solution per 1 ml well, up to 3 days",
  "experimental": "The cartilage samples as described in Example 4 underwent a 1 hour predigestion stage with 0.4% w/v pronase (Sigma, UK), dissolved in 4-(2-hydroxyethyl)-1-piperazineethanesulfonic acid (HEPES)-buffered DMEM (Gibco, UK) supplemented with 50 U/50 mg/mL penicillin-streptomycin (Sigma Aldrich) and 2.5 mg/mL amphotericin B. Cartilages samples were placed in sterile eppendorfs containing the filter-sterilized enzyme solution by passage through a […] filter at a concentration of 1 ml solution for 5 cartilage extracts. The samples were incubated at 37° C. and the cartilage fragments were then washed twice with sterile PBS and digested with 1 ml each 6 cartilage sample of collagenase II (Sigma, UK) 0.1% w/v for 16 h at 37° C. Collagenase II was prepared in 4-(2-hydroxyethyl)-1-piperazineethanesulfonic acid (HEPES)-buffered DMEM (Gibco, UK) supplemented with 50 U/50 mg/mL penicillin-streptomycin (Sigma Aldrich and filter sterilised. […]\nChondrocytes viability was assessed through MTT and LDH assay kits (Sigma, UK) according to manufacturer's protocols. […]",
  "data": [
    {"smiles": "C[C@@H]1C[C@H]2[C@@H]3CCC4=CC(=O)C=C[C@]4(C)[C@@]3(F)[C@@H](O)C[C@]2(C)[C@@]1(O)C(=O)COP(=O)(O)O", "note": "[DEX-P, dexamethasone phosphate]", "values": [
      {"measurement": "chondrocytes viability (MTT and LDH)", "value": "same viability"}
    ]}
  ]
}
